# Source: US10954262B2, “Tunicamycin analogues” (Oxford University Innovation Limited, priority 2017, dated 2021)
# Where a name gives a salt, the structure may show the parent alone. Read-outs that look alike come from different tables or passages of the source.
# Assays:
# [1] = tested on: Bacillus cereus (ATCC11778); experiment: Kirby-Bauer disc diffusion susceptibility test; format: cell-based; conditions: for Antibacterial activity in disc diffusion test: 5 μg per disc; for zone of inhibition at 5 µg/disc: ATCC11778, 6 mm disc impregnated with 5 μg, 20 hours, 35° C., read-out: Diffusion distance (zone diameter)
# Experimental: (§1) Bioactivity was assessed using the Kirby-Bauer disc diffusion susceptibility test. Oxoid Blank Discs were impregnated with the desired test substance. A 0.5 McFarland standard inoculum was prepared by adding 3-5 single colonies to 10 mL MH broth in a 15 mL falcon tube and standardised to 0.5 McFarland standard. The inoculum was used within 10 minutes. A sterile cotton swab was dipped in the inoculum, gently pressed against the side of the tube to remove excess liquid, and generously streaked on MH agar plate to fully cover the plate. The impregnated disc was carefully placed on the agar. The plate was incubated at 35° C. for 20 hrs overnight. A digital calliper was used to measure the zone diameter. The recorded zone diameter is an average of three zone diameters measured of one zone.
# (§2) Each 6 mm disc was impregnated with 5 μg of the relevant compound (TM, A, B, C, D, or any of E1 to E7), and the diffusion zone recorded after 20 hours.
# (§3) Results are shown for E2 to E7 and TM. Values quoted are zone diameters, with larger numbers indicating higher antibacterial activity.
# [2] = tested on: Bacillus subtilis (EC1524); experiment: Kirby-Bauer disc diffusion susceptibility test; format: cell-based; conditions: for Antibacterial activity in disc diffusion test: 5 μg per disc; for zone of inhibition at 5 µg/disc: 6 mm disc impregnated with 5 μg, 20 hours, 35° C., read-out: Diffusion distance (zone diameter)
# Experimental: as §1, §2, §3
# [3] = tested on: Bacillus subtilis (EC1524); experiment: microbe, parasite or virus in culture; format: cell-based; conditions: for MIC: MH broth, 35° C., 20-24 hours; for IC50: OD600 dose-response curve; for MBC: additional 20 hours on MH agar
# [4] = tested on: HEK293 kidney cells; experiment: Cell proliferation assay / cell morphology (cytotoxicity); format: cell-based, human; conditions: for Minimum lethal dose: HEK293; for viable cells: human
# Experimental: (§4) Underlying scaffolds A, B, C and D and lipid-varied analogues E1 to E7 were assayed for cytotoxicity towards human liver cells (Hep2G) and human kidney cells (HEK293).
# (§5) Mammalian cells were cultured in DMEM medium supplemented with 10% heat inactivated fetal bovine serum (FBS, v/v). The cultures were maintained in a humidified incubator at 37° C. in 5% CO2/95% air. FBS was reduced to 2% for the cell proliferation assay.
# (§6) In sterile 96-well plate, each well was seeded with 1×10^5 cells. The cells were then grown confluent overnight in 100 μL DMEM with 10% FBS. The medium was replenished with DMEM with 2% FBS and added vehicle control or test substance the next day. For test substance in methanol, stock was added to 25 μL of DMEM with 2% FBS or PBS and placed in a laminar flow hood to let the methanol evaporate (about 1-3 hrs). Once the methanol has evaporated, DMEM with 2% FBS was added to final volume of 100 μL of desired test concentration. […] Cells were grown for additional 24 hrs. The cell viability was determined by using a Promega CellTiter 96 AQueous One Solution Cell Proliferation Assay System following the manufacturer's protocol.
# [5] = tested on: HepG2 liver cells; experiment: as above; format: cell-based, human; conditions: for Minimum lethal dose: HepG2; for viable cells: human
# Experimental: as §4, §5, §6
# [6] = tested on: Pseudomonas aeruginosa (ATCC27853); experiment: microbe, parasite or virus in culture; format: cell-based
# [7] = tested on: Bacillus cereus (ATCC11778); experiment: microbe, parasite or virus in culture; format: cell-based; conditions: for MIC: MH broth, 35° C., 20-24 hours; for IC50: OD600 dose-response curve; for MBC: additional 20 hours on MH agar
# [8] = tested on: Pseudomonas aeruginosa (ATCC27853); experiment: Kirby-Bauer disc diffusion susceptibility test; format: cell-based; conditions: 6 mm disc, 5 μg
# Experimental: as §1, §2
# Underlying scaffolds A, B, C and D and lipid-varied analogues E1 to E7 were assayed for potency against Pseudomonas aeruginosa (ATCC27853), according to the methods of Example 2. Results of the Kirby-Bauer disc diffusion susceptibility test conducted using Pseudomonas aeruginosa (ATCC27853) as a test organism are shown in FIG. 2 and in Table 3. MIC, MBC and IC50 values were also obtained as in Example 2.
# [9] = Single-dose PK study, intraperitoneal injection; format: in vivo; conditions: mice
# Experimental: The initial dose was 30 mg/kg. The x-axis indicates the time in hours after the initial injection and the y-axis indicates the blood plasma concentration of TM-8 in μg/mL in the mice.
# A single-dose PK study was done using 16 mice at a dose of 30 mg/kg for the TM-8 analogue, di-N-octanoyl-tunicamycin. […] This study confirmed that the formulation was suitable for injections, and the drug is stable enough in physiological conditions.
# [10] = tested on: Mycobacterium tuberculosis H37RV; experiment: MIC in GAST/Fe and 7H9/ADC/Tw growth medium at 1 and 2 weeks; format: cell-based; conditions: for MIC: Mycobacterium tuberculosis, H37RV
smiles,measurement,setting,value
"CC(=O)N[C@H]1C(O)O[C@H](C[C@@H](O)[C@@H]2O[C@@H](n3ccc(=O)[nH]c3=O)[C@H](O)[C@@H]2O)C(O)C1O (some centres unmarked) [A, N-acetyl-tunicamyl-uracil]",Antibacterial activity in disc diffusion test,[1],completely inactive
same,Antibacterial activity in disc diffusion test,[2],completely inactive
"CC(C)(C)OC(=O)NC1C(O)[C@H](O)C(CO)O[C@@H]1OC1O[C@H](C[C@@H](O)[C@@H]2O[C@@H](n3ccc(=O)[nH]c3=O)[C@H](O)[C@@H]2O)C(O)C(O)[C@H]1NC(=O)OC(C)(C)C (stereo partly drawn) [B, 10′,2″-Di-N-Boc-α-D-glucosamine-(1″-11′)-tunicamyl Uracil]",Antibacterial activity in disc diffusion test,[1],completely inactive
same,Antibacterial activity in disc diffusion test,[2],completely inactive
"CC(=O)NC1C(O)[C@H](O)C(CO)O[C@@H]1OC1O[C@H](C[C@@H](O)[C@@H]2O[C@@H](n3ccc(=O)[nH]c3=O)[C@H](O)[C@@H]2O)C(O)C(O)[C@H]1NC(C)=O (stereo partly drawn) [C, α-D-N-acetylglucosamine-(1″-11′)-N-acetyl Tunicamyl Uracil]",Antibacterial activity in disc diffusion test,[1],completely inactive
same,Antibacterial activity in disc diffusion test,[2],completely inactive
"CC(C)=CCC[C@H](C)CC(=O)NC1C(OC2OC(C[C@@H](O)[C@H]3O[C@@H](n4ccc(=O)[nH]c4=O)[C@H](O)[C@@H]3O)C(O)C(O)[C@H]2NC(=O)C[C@@H](C)CCC=C(C)C)OC(CO)[C@@H](O)C1O (some centres unmarked) [Compound E1, Di-N-citronoyl-tunicamycin]",MIC,[3],6.25 µg/mL
same,IC50,[3],0.415 µg/mL
same,MBC,[3],> 100 µg/mL
same,Minimum lethal dose,[4],>400 µg/mL
same,viable cells,[4],> 75%
same,Minimum lethal dose,[5],>400 µg/mL
same,viable cells,[5],> 75%
same,IC50,[6],70.3 µg/mL
same,MBC,[6],> 400 µg/mL
same,MIC,[6],200 µg/mL
same,MIC,[7],100 µg/mL
same,IC50,[7],6.29 µg/mL
same,MBC,[7],> 200 µg/mL
"CCCCCCC(=O)NC1C(OC2OC(C[C@@H](O)[C@H]3O[C@@H](n4ccc(=O)[nH]c4=O)[C@H](O)[C@@H]3O)C(O)C(O)[C@H]2NC(=O)CCCCCC)OC(CO)[C@@H](O)C1O (some centres unmarked) [Compound E2, Di-N-heptanoyl tunicamycin]",Diffusion distance,[8],7 mm
same,MIC,[3],6.25 µg/mL
same,IC50,[3],3.39 µg/mL
same,MBC,[3],> 50 µg/mL
same,Minimum lethal dose,[4],>400 µg/mL
same,viable cells,[4],> 75%
same,Minimum lethal dose,[5],>400 µg/mL
same,viable cells,[5],> 75%
same,zone of inhibition at 5 µg/disc,[2],10 mm
same,IC50,[6],62.4 µg/mL
same,MBC,[6],> 400 µg/mL
same,MIC,[6],100 µg/mL
same,MIC,[7],100 µg/mL
same,IC50,[7],13.3 µg/mL
same,MBC,[7],> 200 µg/mL
"CCCCCCCC(=O)NC1C(OC2OC(C[C@@H](O)[C@H]3O[C@@H](n4ccc(=O)[nH]c4=O)[C@H](O)[C@@H]3O)C(O)C(O)[C@H]2NC(=O)CCCCCCC)OC(CO)[C@@H](O)C1O (some centres unmarked) [Compound E3, Di-N-octanoyl-tunicamycin]",Diffusion distance,[8],9 mm
same,MIC,[3],0.78 µg/mL
same,IC50,[3],0.201 µg/mL
same,MBC,[3],> 0.98 µg/mL
same,Minimum lethal dose,[4],>400 µg/mL
same,Minimum lethal dose,[5],>400 µg/mL
same,zone of inhibition at 5 µg/disc,[1],12 mm
same,zone of inhibition at 5 µg/disc,[2],16 mm
same,IC50,[6],46.5 µg/mL
same,MBC,[6],> 400 µg/mL
same,MIC,[6],100 µg/mL
same,MIC,[7],6.25 µg/mL
same,IC50,[7],0.782 µg/mL
same,MBC,[7],50 µg/mL
same,Detectability in blood plasma,"[9]; 6 hours after intraperitoneal injection, 30 mg/kg",easily detectable
same,Stability in physiological conditions,[9]; 30 mg/kg intraperitoneal,stable enough
"CCCCCCCCC(=O)NC1C(OC2OC(C[C@@H](O)[C@H]3O[C@@H](n4ccc(=O)[nH]c4=O)[C@H](O)[C@@H]3O)C(O)C(O)[C@H]2NC(=O)CCCCCCCC)OC(CO)[C@@H](O)C1O (some centres unmarked) [Compound E4, Di-N-nonanoyl-tunicamycin]",Diffusion distance,[8],13 mm
same,MIC,[3],0.024 µg/mL
same,IC50,[3],0.0146 µg/mL
same,MBC,[3],> 0.06 µg/mL
same,Minimum lethal dose,[4],>400 µg/mL
same,viable cells,[4],> 75%
same,Minimum lethal dose,[5],>400 µg/mL
same,viable cells,[5],> 75%
same,zone of inhibition at 5 µg/disc,[1],13 mm
same,zone of inhibition at 5 µg/disc,[2],16 mm
same,IC50,[6],55 µg/mL
same,MBC,[6],400 µg/mL
same,MIC,[6],100 µg/mL
same,MIC,[7],0.78 µg/mL
same,IC50,[7],0.0723 µg/mL
same,MBC,[7],25 µg/mL
same,MIC lower than naturally occurring tunicamycin TM,[10]; in some cases,approximately 5 fold
"CCCCCCCCCC(=O)NC1C(OC2OC(C[C@@H](O)[C@H]3O[C@@H](n4ccc(=O)[nH]c4=O)[C@H](O)[C@@H]3O)C(O)C(O)[C@H]2NC(=O)CCCCCCCCC)OC(CO)[C@@H](O)C1O (some centres unmarked) [Compound E5, Di-N-decanoyl-tunicamycin]",Diffusion distance,[8],12 mm
same,MIC,[3],0.39 µg/mL
same,IC50,[3],0.114 µg/mL
same,MBC,[3],> 0.39 µg/mL
same,Minimum lethal dose,[4],>400 µg/mL
same,viable cells,[4],> 75%
same,Minimum lethal dose,[5],>400 µg/mL
same,viable cells,[5],> 75%
same,zone of inhibition at 5 µg/disc,[1],9 mm
same,zone of inhibition at 5 µg/disc,[2],10 mm
same,IC50,[6],53.5 µg/mL
same,MBC,[6],400 µg/mL
same,MIC,[6],100 µg/mL
same,MIC,[7],0.39 µg/mL
same,IC50,[7],0.0461 µg/mL
same,MBC,[7],12.5 µg/mL
"CCCCCCCCCCC(=O)NC1C(OC2OC(C[C@@H](O)[C@H]3O[C@@H](n4ccc(=O)[nH]c4=O)[C@H](O)[C@@H]3O)C(O)C(O)[C@H]2NC(=O)CCCCCCCCCC)OC(CO)[C@@H](O)C1O (some centres unmarked) [Compound E6, Di-N-undecanoyl-tunicamycin]",Diffusion distance,[8],12 mm
same,MIC,[3],1.56 µg/mL
same,IC50,[3],0.852 µg/mL
same,MBC,[3],> 6.25 µg/mL
same,Minimum lethal dose,[4],>400 µg/mL
same,viable cells,[4],> 75%
same,Minimum lethal dose,[5],>400 µg/mL
same,viable cells,[5],> 75%
same,zone of inhibition at 5 µg/disc,[1],7 mm
same,zone of inhibition at 5 µg/disc,[2],6 mm
same,IC50,[6],63.2 µg/mL
same,MBC,[6],400 µg/mL
same,MIC,[6],100 µg/mL
same,MIC,[7],0.78 µg/mL
same,IC50,[7],0.0878 µg/mL
same,MBC,[7],25 µg/mL
same,1-week MIC,[10],2.8 µg/mL
same,2-week MIC,[10],2.8 µg/mL
same,MIC,"[10]; 168 h, read-out: 1-week MIC",5.6 µg/mL
same,MIC,"[10]; 336 h, read-out: 2-week MIC",5.6 µg/mL
"CCCCCCCCCCCC(=O)NC1C(OC2OC(C[C@@H](O)[C@H]3O[C@@H](n4ccc(=O)[nH]c4=O)[C@H](O)[C@@H]3O)C(O)C(O)[C@H]2NC(=O)CCCCCCCCCCC)OC(CO)[C@@H](O)C1O (some centres unmarked) [Compound E7, Di-N-dodecanoyl-tunicamycin]",Diffusion distance,[8],8 mm
same,MIC,[3],100 µg/mL
same,IC50,[3],58.9 µg/mL
same,MBC,[3],> 200 µg/mL
same,Minimum lethal dose,[4],>400 µg/mL
same,viable cells,[4],> 75%
same,Minimum lethal dose,[5],>400 µg/mL
same,viable cells,[5],> 75%
same,IC50,[6],81.9 µg/mL
same,MBC,[6],> 400 µg/mL
same,MIC,[6],200 µg/mL
same,MIC,[7],50 µg/mL
same,IC50,[7],1.4 µg/mL
same,MBC,[7],> 200 µg/mL
"NC1C(O)[C@H](O)C(CO)O[C@@H]1OC1O[C@H](C[C@@H](O)[C@@H]2O[C@@H](n3ccc(=O)[nH]c3=O)[C@H](O)[C@@H]2O)C(O)C(O)[C@H]1N (stereo partly drawn) [D, α-D-glucosamine-(1″-11′)-tunicamyl Uracil Dihydrochloride]",Antibacterial activity in disc diffusion test,[1],completely inactive
same,Antibacterial activity in disc diffusion test,[2],completely inactive
